Assay results reported in PubChem BioAssay AID2060347 (Molecular Pharmacology Branch, DTP, NCI, 2025).

Test system: 817829-284-R-J1-PDC spheroids with HUVEC/MSC, viability
Test: Anticancer human tumor 817829-284-R-J1-PDC patient-derived colon adenocarcinoma cell line growth inhibition [TAK]
Conditions: for IC50: curve of first compound; for viability, T/C: stronger effect = lower value
Excerpt: Combinatorial screen of targeted agents with TAK-243 and ipatasertib in multi-cell type tumor spheroids
A high-throughput screen of multi-cell type tumor spheroids was designed to identify active combinations of targeted small molecules and TAK-243 or ipatasertib. Complex spheroids include a stromal component modeled by human endothelial cells (HUVEC) and fibroblasts modeled by human mesenchymal stem cells (MSCs). The concentration ranges selected for each drug and investigational agent were based upon clinically achievable concentrations if the clinical Cmax of the agent was known.
Compounds. The drugs and investigational agents: TAK-243 (785004), ipatasertib (767898), everolimus (733504), selumetinib (741078), bortezomib (756655), trametinib (758246), ixazomib (758254), vemurafenib (761431), dabrafenib (764134), sapanisertib (764658), alpelisib (765974), and copanlisib (816437), were obtained from the National Cancer Institute (NCI) Developmental Therapeutics Program Chemical Repository. The FDA-approved anticancer drug set is available from the NCI Developmental Therapeutics Program. […] The stock solutions were prepared in dimethyl sulfoxide (DMSO, Sigma-Aldrich, St. Louis, MO, cat. D2650) at 800-fold the tested concentration and stored at -70 degrees C prior to their use. All drugs and investigational agents were tested over a range starting from a high concentration at or near the clinical Cmax and decreasing in half-log increments. If the clinical Cmax for an agent had not been determined, the highest concentration tested was 10 microM.
NCI60 Cell Culture. NCI60 cell lines were obtained from the NCI Developmental Therapeutics Program Tumor Repository. For each lot of cells, the Repository performed Applied Biosystems AmpFLSTR Identifiler testing with PCR amplification to confirm consistency with the published Identifier STR profile for each cell line. Cells were kept in continuous culture for no more than 20 passages. The optimal seeding densities for each of the cell lines at each time point assessed were determined prior to performing the concentration response studies. Briefly, the NCI60 human tumor lines were grown as monolayers in RPMI 1640 medium supplemented with 10% FBS and 2 mmol/L L-glutamine.
An additional 2 lines were from the NCI60 cell line panel including melanomas, MALME-3M and SK-MEL-2. Pooled donor human umbilical vein endothelial cells (HUVEC, Lonza, cat. CC-2519) and human mesenchymal stem cells (hMSC, Lonza, cat. PT-2501) were purchased from Lonza (Walkersville, MD).
PDMR cell lines were grown in complete medium (DC medium): Dulbecco's modified Eagle's medium (DMEM)/F12 supplemented with 5% fetal bovine serum (FBS), 2 mM L-glutamine, 100 U/mL penicillin and 100 µg/ml streptomycin, 0.4 µg/ml hydrocortisone, 10 ng/ml epidermal growth factor (EGF) recombinant human protein, 24 µg/mL adenine, and 0.1 mg/mL primocin. During culture from frozen stock vials, PDMR cells were cultured in the same medium containing 10 µM Y-27632 (see Table 3). The PDCs were cultured in complete DMEM/F12 media without 10 microM Y-27632 dihydrochloride for at least two passages prior to the screen. The pooled donor HUVEC and hMSC were cultured in endothelial cell growth medium 2 (PromoCell, Heidelberg, Germany, cat. C-22011) and mesenchymal stem cell growth medium 2 (PromoCell, cat. C-28009), respectively. For all experiments, HUVEC and hMSC were used at passages </=5.
For the pre-screen, cell seeding densities were determined from a titration spanning the range from 5,000 to 313 cells per well. The mct-spheroids including 60% malignant cells, 25% HUVEC and 15% MSC dispensed as a mixture into U-bottom Ultra-Low Attachment 384-well plates (Corning, NY)
High-throughput Drug Combination Screening.
Prior to their inoculation into 384-well plates, malignant cells, HUVEC, and hMSC were removed from T flasks using TrypLE express (Thermo Fisher Scientific, cat. 12605036) and harvested by centrifugation for 5 min at 233 x g. […]

COC1CC2CCC(C)C(O)(O2)C(=O)C(=O)N2CCCCC2C(=O)OC(C(C)CC2CCC(OCCO)C(OC)C2)CC(=O)C(C)C=C(C)C(O)C(OC)C(=O)C(C)CC(C)C=CC=CC=C1C (stereo not given) + CC(C)NCC(C(=O)N1CCN(c2ncnc3c2C(C)CC3O)CC1)c1ccc(Cl)cc1
IC50 (second compound 0.3 µM): 14.5 nM
IC50 (second compound 0.949 µM): 0.479 nM
IC50 (second compound 3 µM): < 0.316 nM
IC50 (second compound 9.49 µM): < 0.316 nM
IC50 (second compound 30 µM): < 0.316 nM
viability, T/C (second compound 0.3 µM, first compound 0.000316 µM): 90.9%
viability, T/C (second compound 0.3 µM, first compound 0.001 µM): 76.7%
viability, T/C (second compound 0.3 µM, first compound 0.00316 µM): 61.8%
viability, T/C (second compound 0.3 µM, first compound 0.01 µM): 49.9%
viability, T/C (second compound 0.3 µM, first compound 0.0316 µM): 49.7%
viability, T/C (second compound 0.3 µM, first compound 0.1 µM): 40.8%
viability, T/C (second compound 0.949 µM, first compound 0.000316 µM): 59%
viability, T/C (second compound 0.949 µM, first compound 0.001 µM): 33.4%
viability, T/C (second compound 0.949 µM, first compound 0.00316 µM): 33.7%
viability, T/C (second compound 0.949 µM, first compound 0.01 µM): 31.7%
viability, T/C (second compound 0.949 µM, first compound 0.0316 µM): 28.6%
viability, T/C (second compound 0.949 µM, first compound 0.1 µM): 28.9%
viability, T/C (second compound 3 µM, first compound 0.000316 µM): 23.3%
viability, T/C (second compound 3 µM, first compound 0.001 µM): 19.9%
viability, T/C (second compound 3 µM, first compound 0.00316 µM): 16.4%
viability, T/C (second compound 3 µM, first compound 0.01 µM): 16%
viability, T/C (second compound 3 µM, first compound 0.0316 µM): 18.3%
viability, T/C (second compound 3 µM, first compound 0.1 µM): 13.7%
viability, T/C (second compound 9.49 µM, first compound 0.000316 µM): 12.9%
viability, T/C (second compound 9.49 µM, first compound 0.001 µM): 12.5%
viability, T/C (second compound 9.49 µM, first compound 0.00316 µM): 12.6%
viability, T/C (second compound 9.49 µM, first compound 0.01 µM): 12.7%
viability, T/C (second compound 9.49 µM, first compound 0.0316 µM): 9.91%
viability, T/C (second compound 9.49 µM, first compound 0.1 µM): 12.8%
viability, T/C (second compound 30 µM, first compound 0.000316 µM): 7.9%
viability, T/C (second compound 30 µM, first compound 0.001 µM): 7.4%
viability, T/C (second compound 30 µM, first compound 0.00316 µM): 6.49%
viability, T/C (second compound 30 µM, first compound 0.01 µM): 6.32%
viability, T/C (second compound 30 µM, first compound 0.0316 µM): 6.79%
viability, T/C (second compound 30 µM, first compound 0.1 µM): 6.34%

Cn1cnc2c(F)c(Nc3ccc(Br)cc3Cl)c(C(=O)NOCCO)cc21 + CC(C)NCC(C(=O)N1CCN(c2ncnc3c2C(C)CC3O)CC1)c1ccc(Cl)cc1
IC50 (second compound 0.3 µM): 11.5 nM
IC50 (second compound 0.949 µM): < 9.49 nM
IC50 (second compound 3 µM): < 9.49 nM
IC50 (second compound 9.49 µM): < 9.49 nM
IC50 (second compound 30 µM): < 9.49 nM
viability, T/C (second compound 0.3 µM, first compound 0.00949 µM): 53.8%
viability, T/C (second compound 0.3 µM, first compound 0.03 µM): 36.5%
viability, T/C (second compound 0.3 µM, first compound 0.0949 µM): 40.4%
viability, T/C (second compound 0.3 µM, first compound 0.3 µM): 23.4%
viability, T/C (second compound 0.3 µM, first compound 0.949 µM): 17.4%
viability, T/C (second compound 0.3 µM, first compound 3 µM): 9.69%
viability, T/C (second compound 0.949 µM, first compound 0.00949 µM): 17.6%
viability, T/C (second compound 0.949 µM, first compound 0.03 µM): 15.9%
viability, T/C (second compound 0.949 µM, first compound 0.0949 µM): 13.8%
viability, T/C (second compound 0.949 µM, first compound 0.3 µM): 12.9%
viability, T/C (second compound 0.949 µM, first compound 0.949 µM): 12.6%
viability, T/C (second compound 0.949 µM, first compound 3 µM): 10.6%
viability, T/C (second compound 3 µM, first compound 0.00949 µM): 9.45%
viability, T/C (second compound 3 µM, first compound 0.03 µM): 10.2%
viability, T/C (second compound 3 µM, first compound 0.0949 µM): 8.2%
viability, T/C (second compound 3 µM, first compound 0.3 µM): 9.01%
viability, T/C (second compound 3 µM, first compound 0.949 µM): 8.23%
viability, T/C (second compound 3 µM, first compound 3 µM): 6.8%
viability, T/C (second compound 9.49 µM, first compound 0.00949 µM): 6.1%
viability, T/C (second compound 9.49 µM, first compound 0.03 µM): 6.4%
viability, T/C (second compound 9.49 µM, first compound 0.0949 µM): 5.55%
viability, T/C (second compound 9.49 µM, first compound 0.3 µM): 5.64%
viability, T/C (second compound 9.49 µM, first compound 0.949 µM): 4.81%
viability, T/C (second compound 9.49 µM, first compound 3 µM): 4.12%
viability, T/C (second compound 30 µM, first compound 0.00949 µM): 4.35%
viability, T/C (second compound 30 µM, first compound 0.03 µM): 3.94%
viability, T/C (second compound 30 µM, first compound 0.0949 µM): 3.58%
viability, T/C (second compound 30 µM, first compound 0.3 µM): 3.91%
viability, T/C (second compound 30 µM, first compound 0.949 µM): 2.71%
viability, T/C (second compound 30 µM, first compound 3 µM): 2.38%
